Test results from US10947188B2, “Small molecule ferroptosis inducers” (THE TRUSTEES OF COLUMBIA UNIVERSITY IN THE CITY OF NEW YORK, priority 2016, dated 2021).

Legend:
[1] = test system: HT-1080; test: Modulatory profiling: Alamar Blue viability, lethal compound cotreated with death modulator (EC50, AUC); format: cell-based; design: AUC, modulator HT.3MA / AUC, modulator HT.ALLN / AUC HT.ATA / AUC HT.ActD / AUC HT.BHA / AUC HT.BHT / AUC HT.BocD / AUC HT.CHX / AUC HT.Co2+ / AUC HT.DPQ / AUC HT.EGTA / AUC HT.Lmim / AUC HT.NAD+ / AUC HT.Nec-1 / AUC HT.SP600125 / AUC HT.TLCK / AUC HT.U0126: unit not given beside the values; conditions: for AUC HT.ATA: HT-1080, modulator ATA; for AUC HT.ActD: HT-1080, modulator ActD; for AUC HT.BHA: HT-1080, modulator BHA; for AUC HT.BHT: HT-1080, modulator BHT; for AUC HT.BocD: HT-1080, modulator BocD; for AUC HT.CHX: HT-1080, modulator CHX; for AUC HT.Co2+: HT-1080, modulator Co2+; for AUC HT.CspA: HT-1080, modulator CspA; for AUC HT.DPQ: HT-1080, modulator DPQ; for AUC HT.EGTA: HT-1080, modulator EGTA; for AUC HT.Gd3+: HT-1080, modulator Gd3+; for AUC HT.LNAME: HT-1080, modulator LNAME; for AUC HT.Lmim: HT-1080, modulator Lmim; for AUC HT.NAD+: HT-1080, modulator NAD+; for AUC HT.NMMA: HT-1080, modulator NMMA; for HT.atoc (AUC) / HT.bCarotene (AUC) / HT.deferox (AUC) / HT.digoxin (AUC) / HT.trolox (AUC) / HT.zVAD (AUC): HT-1080; for HT.atoc (AUC): modulator atoc; for HT.bCarotene (AUC): modulator bCarotene; for HT.deferox (AUC): modulator deferox; for HT.digoxin (AUC): modulator digoxin; for HT.trolox (AUC): modulator trolox; for HT.zVAD (AUC): modulator zVAD; as to AUC HT.BHA: reference of the scale not given here; as to AUC HT.EGTA: reference of the scale not given here
[2] = test system: BJeLR; test: as above; format: cell-based, human; design: AUC, modulator BJ.Gd3+ / AUC, modulator BJ.LNAME / AUC, modulator BJ.Lmin / AUC, modulator BJ.3MA / AUC, modulator BJ.ALLN / AUC, modulator BJ.Boc D / AUC, modulator BJ.CHX / AUC, modulator BJ.Co2+ / AUC, modulator BJ.Nec-1 / AUC, modulator BJ.Pepstatin / AUC, modulator BJ.TLCK / AUC, modulator BJ.atoc / AUC, modulator BJ.trolox / AUC, modulator BJ.zVAD: unit not given beside the values; conditions: BJeLR cells, modulatory profile value (AUC); for AUC, modulator BJ.3MA: lethal compound cotreated with modulator 3MA; for AUC, modulator BJ.ALLN: lethal compound cotreated with modulator ALLN; for AUC, modulator BJ.Boc D: lethal compound cotreated with modulator Boc D; for AUC, modulator BJ.CHX: lethal compound cotreated with modulator CHX; for AUC, modulator BJ.Co2+: lethal compound cotreated with modulator Co2+; for AUC, modulator BJ.DPQ: lethal compound cotreated with modulator DPQ; for AUC, modulator BJ.Gd3+: lethal compound cotreated with modulator Gd3+; for AUC, modulator BJ.LNAME: lethal compound cotreated with modulator LNAME; for AUC, modulator BJ.Lmin/NAD+: lethal compound cotreated with modulator Lmin/NAD+; for AUC, modulator BJ.Lmin: lethal compound cotreated with modulator Lmin; for AUC, modulator BJ.NAD+: lethal compound cotreated with modulator NAD+; for AUC, modulator BJ.NMMA: lethal compound cotreated with modulator NMMA; for AUC, modulator BJ.Nec-1: lethal compound cotreated with modulator Nec-1; for AUC, modulator BJ.Pepstatin: lethal compound cotreated with modulator Pepstatin; for AUC, modulator BJ.TLCK: lethal compound cotreated with modulator TLCK; as to AUC, modulator BJ.3MA: reference of the scale not given here; as to AUC, modulator BJ.ALLN: reference of the scale not given here; as to AUC, modulator BJ.Boc D: reference of the scale not given here; as to AUC, modulator BJ.CHX: reference of the scale not given here; as to AUC, modulator BJ.Co2+: reference of the scale not given here; as to AUC, modulator BJ.DPQ: reference of the scale not given here; as to AUC, modulator BJ.Gd3+: reference of the scale not given here; as to AUC, modulator BJ.LNAME: reference of the scale not given here; as to AUC, modulator BJ.NAD+: reference of the scale not given here; as to AUC, modulator BJ.NMMA: reference of the scale not given here; as to AUC, modulator BJ.Nec-1: reference of the scale not given here; as to AUC, modulator BJ.Pepstatin: reference of the scale not given here; as to AUC, modulator BJ.TLCK: reference of the scale not given here

| Compound | AUC HT.ATA [1] | AUC HT.ActD [1] | AUC HT.BHA [1] | AUC HT.BHT [1] | AUC HT.BocD [1] | AUC HT.CHX [1] | AUC HT.Co2+ [1] | AUC HT.CspA [1] | AUC HT.DPQ [1] | AUC HT.EGTA [1] | AUC HT.Gd3+ [1] | AUC HT.LNAME [1] | AUC HT.Lmim [1] | AUC HT.NAD+ [1] | AUC HT.NMMA [1] | HT.atoc (AUC) [1] | HT.bCarotene (AUC) [1] | HT.deferox (AUC) [1] | HT.digoxin (AUC) [1] | HT.trolox (AUC) [1] | also measured |
| --- | --- | --- | --- | --- | --- | --- | --- | --- | --- | --- | --- | --- | --- | --- | --- | --- | --- | --- | --- | --- | --- |
| C=CCC1(Cl)C(=O)C(Cl)=C(n2ccnc2)C1(OC)OC (stereo not drawn) [CIL76] | 0.04513 | 0.04286 | 0.000578 | −0.08655 | −0.02767 | 0.1505 | 0.1531 | −0.005998 | 0.01554 | −0.02151 | −0.0293 | 0.0222 | 0.007964 | 0.00781 | −0.007942 | 0.003265 | −0.00713 | 0.1376 | 0.01032 | −0.02707 | HT.zVAD (AUC) [1]: 0.032; AUC, modulator BJ.3MA [2]: −0.03638; AUC, modulator BJ.ALLN [2]: −0.0536; AUC, modulator BJ.Boc D [2]: 0.03237; AUC, modulator BJ.CHX [2]: 0.2608; AUC, modulator BJ.Co2+ [2]: 0.1676; AUC, modulator BJ.DPQ [2]: 0.007351; AUC, modulator BJ.Gd3+ [2]: 0.01565; AUC, modulator BJ.LNAME [2]: 0.004345; AUC, modulator BJ.Lmin/NAD+ [2]: −0.02656; AUC, modulator BJ.Lmin [2]: −0.005829; AUC, modulator BJ.NAD+ [2]: 0.004895; AUC, modulator BJ.NMMA [2]: −0.01937; AUC, modulator BJ.Nec-1 [2]: −0.0283; AUC, modulator BJ.Pepstatin [2]: 0.0213; AUC, modulator BJ.TLCK [2]: −0.008689 |
| C[C@H]1CCC[C@]2(C)C[C@H]3OC(=O)[C@H](CN4CCCC4)[C@H]3C=C12 [CIL80] | 0.05781 | 0.08002 | 0.009452 | −0.01971 | −0.02337 | 0.09741 | 0.112 | 0.01161 | −0.01717 | 0.0199 | −0.03226 | 0.01972 | 0.05449 | 0.01251 | −0.01256 | 0.004877 | 0.003874 | 0.1672 | 0.06493 | −0.01954 | HT.zVAD (AUC) [1]: 0.03135; AUC, modulator BJ.3MA [2]: 0.00654; AUC, modulator BJ.ALLN [2]: −0.004769; AUC, modulator BJ.Boc D [2]: 0.008783; AUC, modulator BJ.CHX [2]: 0.1351; AUC, modulator BJ.Co2+ [2]: 0.09506; AUC, modulator BJ.DPQ [2]: −0.03368; AUC, modulator BJ.Gd3+ [2]: 0.01802; AUC, modulator BJ.LNAME [2]: 0.02901; AUC, modulator BJ.Lmin/NAD+ [2]: 0.09271; AUC, modulator BJ.Lmin [2]: 0.01639; AUC, modulator BJ.NAD+ [2]: −0.008515; AUC, modulator BJ.NMMA [2]: −3.885E−05; AUC, modulator BJ.Nec-1 [2]: −0.01593; AUC, modulator BJ.Pepstatin [2]: 0.03142; AUC, modulator BJ.TLCK [2]: −0.006094 |
| O=c1c(Cl)c(Cl)cnn1-c1ccc(Cl)cc1 [CIL63] | 0.07925 | −0.003254 | 0.01784 | −0.1088 | 0.01855 | 0.07744 | 0.02639 | 0.003063 | −0.02172 | 0.06222 | −0.03164 | 0.04201 | 0.03962 | 0.03316 | −0.002298 | 0.07269 | 0.0644 | 0.08989 | 0.02371 | 0.03222 | HT.zVAD (AUC) [1]: 0.01846; AUC, modulator BJ.3MA [2]: 0.04075; AUC, modulator BJ.ALLN [2]: 0.0544; AUC, modulator BJ.Boc D [2]: −0.01053; AUC, modulator BJ.CHX [2]: 0.09508; AUC, modulator BJ.Co2+ [2]: 0.02177; AUC, modulator BJ.DPQ [2]: 0.0003046; AUC, modulator BJ.Gd3+ [2]: 0.01459; AUC, modulator BJ.LNAME [2]: −0.006812; AUC, modulator BJ.Lmin/NAD+ [2]: 0.07776; AUC, modulator BJ.Lmin [2]: 0.01215; AUC, modulator BJ.NAD+ [2]: 0.02352; AUC, modulator BJ.NMMA [2]: 0.002719; AUC, modulator BJ.Nec-1 [2]: 0.02815; AUC, modulator BJ.Pepstatin [2]: 0.02882; AUC, modulator BJ.TLCK [2]: −0.0437 |
